One assay concerns Rat Femur and Tibia. The assay is described as follows: Enhancing calcium deposition in rat femur and tibia. It counts as in vivo. Conditions: rats fed sample in high sucrose feeding stuff for eight weeks. The method, then:
The experiment was performed using six three-weeks-aged female Wister rats per one group. The rats were fed with high sucrose feeding stuff containing ingredients listed Table 11 (In the Table, each value means “weight %”.) and one part by weight of each test sample; hesperetin (commercialized by Funakoshi, Co., Ltd., Tokyo, Japan), quercetin (commercialized by Tokyo Kasei Kogyo, Co., Ltd., Tokyo, Japan), α-glycosyl hesperidin (product name “αG HESPERIDINE”, commercialized by Hayashibara Shoji Inc., Okayama, Japan), α-glycosyl rutin (product name “αG RUTIN P”, commercialized by Hayashibara Shoji Inc., Okayama, Japan), or ipriflavone (commercialized by Daito Corporation, Toyama, Japan) (positive control). As a negative control, rats fed with feedstuff containing one part by weight of sucrose replacing test sample were prepared. The rats were allowed to freely take water. The rats were killed after eight weeks, and then, their femurs and tibias were excised. Each femur or tibia dried at 100° C. for about six hours was measured by electric even balance for high precision analysis (product name “HA180M/12QM”, commercialized by A & D Co, Ltd., Tokyo, Japan), and then, each bone was placed into a crucible and burned in an incinerator at 950° C. for six hours. The cinerary resultant was resolved in hydrochloric solution and provided for measuring calcium amount by atomic absorption photometer. Calcium amount per one dried bone was calculated and compared each other.

Assay [1] relates to mouse pre-osteoblastic cell MC3T3-E1. The assay is described as follows: Alkaline phosphatase activity in mouse pre-osteoblastic cells. The class given is cell-based. On the procedure:
To increase number of osteoblastic cells having calcium-deposition activity is important for increasing bone mass. […] The activity is at low level in pre-osteoblastic cells and at high level in osteoblastic cells differentiated form the pre-osteoblastic cells. […] Since final ethanol concentration in the medium is 0.2% (v/v), α-MEM medium containing 0.2% (v/v) ethanol was prepared as a negative control. The cells were inoculated for eight days as changing the medium therewith to fresh medium with or without each sample per three days. Alkaline phosphatase activity was measured using “Alkaline Phospha B-Test Wako” (commercialized by Wako Pure Chemical Industries, Osaka, Japan) according with Kajii et al (Archives of Oral Biology, Vol. 44, pp. 233-241, (1999)). Briefly, to the above described mouse pre-osteoblastic cells washed with 1 ml of 0.25 M sucrose solution three times after removing the medium were added 0.45 ml of 50 mM carbonate salt buffer (pH9.8) containing 1 mM magnesium chloride and 50 mM sucrose and 0.05 ml of 3.4 mM disodium p-nitrophenyl phosphate in due course. The mixture was incubated at 25° C. for five minutes and admixed with 1.5 ml of 0.6N sodium hydroxide as a reaction terminator. Absorbance 405 nm of p-nitrophenol generated by alkaline phosphatase in the resulting mixture was measured, and the obtained values were used as values as alkaline phosphatase activity. […] The experiment was performed by the method according to Experiment 1 except that culture day in the medium containing each sample was three, six or nine, and concentration of each sample was 5, 10 or 20 μM. […] As a negative control, mediums containing ethanol in the above concentration were prepared for calculating relative activity to the activity of each control.

In the next assay the test system is Mouse MC3T3-E1 cells. The experiment in a line: Calcium deposition by alizarin red-S staining. The class given is cell-based. Set-up: key: +: same strength of red color as a negative control (only medium containing 0.2% (v/v) ethanol); ++: half strength of the positive control; +++: same strength of red color as a positive control (indomethacin). The note with it: MC3T3-E1, 20 mM each compound (so in the source), eight days, alizarin red-S red color judgement. From the text: Following Experiment 1 which investigates differentiating pre-osteoblastic cells into osteoblastic cells, some of organic compounds were investigated whether they actually enhance calcium deposition or not. Indomethacin (commercialized by Funakoshi, Co., Ltd., Tokyo, Japan) (positive control), kaempferol (commercialized by Funakoshi, Co., Ltd., Tokyo, Japan), hesperetin (commercialized by Funakoshi, Co., Ltd., Tokyo, Japan), gallic acid (commercialized by Nacalai Tesque, Kyoto, Japan), and coffeic acid (commercialized by Wako Pure Chemical Industries, Osaka, Japan) were selected as organic compounds. Mouse MC3T3-E1 cells were treated with 20 mM each above compound dissolved in 1 ml of α-MEM medium supplemented with 10% (v/v) fetal calf serum and containing 10 mM β-glycerophosphate. Since final ethanol concentration in the medium is 0.2% (v/v), α-MEM medium containing 0.2% (v/v) ethanol was prepared as a negative control. The cells were inoculated for eight days as changing the medium therewith to fresh medium with or without each sample per three days. The cells were applied to measure calcium deposition therein by usual alizarin red-S staining method. Briefly to the cells washed with 1 ml of Dulbecco phosphate buffer saline twice after removing the medium were added 1 ml of 50 (v/v) % ethanol aqueous solution and incubated for 10 minutes. After removing the 50 (v/v) % ethanol aqueous solution, the cells were incubated with 1 ml of distilled water for 10 minutes. After removing the water, the cells were applied with 1 ml of 1% (w/v) alizarin red-S solution, incubated for 10 minutes, and washed with 1 ml of distilled water for three times after removing alizarin red-S solution. Then, the calcium deposition amount was measured in a manner of judging red color on the plate bottom since deposited calcium was stained by the above treatment. The judgement criterion “+” means same strength of red color as a negative control (only medium containing 0.2% (v/v) ethanol), “+++” means same strength of red color as a positive control (indomethacin), and “++” means half strength of the positive control.

The record followed here is patent US8778882B2, “Agent for strengthening calcium containing tissue and use thereof” (Hayashibara Co., Ltd., priority 2002, dated 2014).

As to `COc1ccc([C@@H]2CC(=O)c3c(O)cc(O)cc3O2)cc1O` [Hesperetin], the “Calcium Content Per One Dried Bone” value was 125.1 mg in the assay with Rat Femur and Tibia (Femur); 109.0 mg in the assay with Rat Femur and Tibia (Tibia). The “Dried Bone Mass” value in the assay with Rat Femur and Tibia (Femur) is listed as 0.463 g; in the assay on Rat Femur and Tibia (Tibia) it was 0.357 g. Moreover, the “enhancement of alkaline phosphatase activity compared with ipriflavone (FIG. 1)” value in assay [1] (MC3T3-E1, 5, 10 or 20 μM, day three, six or nine) is listed as “equally enhances”. For the same molecule, in assay [1] (flavonoid comparison, method of Experiment 1, relative to 0.2% (v/v) ethanol negative control), the “Relative Alkaline Phosphatase Activity (%)” value came to 116%. In the assay with Mouse MC3T3-E1 cells, the “Calcium Deposition Amount” value is recorded as “+++”.
